Measured values as given in patent US20260022142A1, “MACROCYCLIC IMMUNOMODULATORS” (Bristol-Myers Squibb Company, priority 2022, published 2026).
Bridge positions count the residues as written; N and C are the ends. Square brackets hold non-standard residues; d marks the D form. Peptide text beside a SMILES is read from it. * marks the point of attachment. Phe(4-COOH) = N[C@@H](Cc1ccc(C(=O)O)cc1)C(=O)O; Bip = N[C@@H](Cc1ccc(-c2ccccc2)cc1)C(=O)O; Phe(3-Me) = Cc1cccc(C[C@H](N)C(=O)O)c1; Cha = N[C@@H](CC1CCCCC1)C(=O)O; Carboxymethyl = O=C(O)C*; Orn = NCCC[C@H](N)C(=O)O; Aun = NCCCCCCCCCCC(=O)O; Dab = NCC[C@H](N)C(=O)O; Dap = NC[C@H](N)C(=O)O; AEEA = NCCOCCOCC(=O)O

Target: T1, PD-1/PD-L1 interaction (PE-labeled human PD-L1-Ig binding to Jurkat cell line over-expressing human PD-1) (Homo sapiens, UniProt Q15116)
T1 construct: expressed in transfected cells; host or cells: Jurkat
T1 sequence (Q15116 25-288): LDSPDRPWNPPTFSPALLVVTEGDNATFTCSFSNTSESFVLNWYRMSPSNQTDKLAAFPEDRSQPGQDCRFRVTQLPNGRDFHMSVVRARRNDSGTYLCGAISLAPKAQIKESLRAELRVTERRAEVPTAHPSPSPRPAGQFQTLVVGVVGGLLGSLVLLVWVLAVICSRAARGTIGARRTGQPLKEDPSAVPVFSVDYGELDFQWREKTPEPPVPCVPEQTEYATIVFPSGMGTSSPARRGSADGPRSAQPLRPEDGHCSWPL
Assay: Jurkat-PD-1 Cell Binding High-Content Screening Assay (CBA)
Format: cell-based
Details: Jurkat cell line over-expressing human PD-1; PE-labeled PD-L1-Ig 20 nM final; read-out: Jurkat hPD1-PDL1 IC50
Summary of the method: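 Read-out is high-content imaging of cell-bound phycoerythrin-tagged PD-L1-Ig on fixed, Hoechst-counterstained Jurkat cells that over-express human PD-1. Compound exposure lasts 2 h at 37° C before the labeled ligand (20 nM final) is added for a further hour.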

Q: With `CC(C)C[C@H]1NC(=O)[C@H](CCCN)NC(=O)[C@H](Cc2ccc(O)cc2)NC(=O)[C@H](Cc2ccc(-c3ccccc3)cc2)NC(=O)[C@H](Cc2ccc(O)cc2)NC(=O)[C@H](Cc2c[nH]c3ccccc23)NC(=O)[C@H](CC(=O)O)NC(=O)[C@H](Cc2ccc(C(=O)O)cc2)NC(=O)[C@H](Cc2ccc(OCC(=O)O)cc2)NC(=O)CSC[C@@H](C(=O)NCCOCCOCC(=O)NCCCCCCCCCCC(=O)O)NC(=O)[C@H](CCCCN)NC(=O)[C@H](Cc2ccc(O)cc2)NC(=O)[C@H](CC2CCCCC2)NC(=O)[C@H](CCN)NC1=O` [Compound 2515] ({CH2CO}-Y(Carboxymethyl)[Phe(4-COOH)]DWY[Bip]Y[Orn][dL][Dab][Cha]YKC[AEEA][Aun]-OH; thioether N-14) as the compound, how does the IC50 read?
A: 0.0404 µM

Q: With `CC(C)C[C@H]1NC(=O)[C@H](CCCN)NC(=O)[C@H](Cc2ccc(O)cc2)NC(=O)[C@H](Cc2ccc(-c3ccccc3)cc2)NC(=O)[C@H](Cc2ccc(O)cc2)NC(=O)[C@H](Cc2c[nH]c3ccccc23)NC(=O)[C@H](CC(=O)O)NC(=O)[C@H](Cc2ccc(OCC(=O)O)cc2)NC(=O)[C@H](Cc2ccc(OCC(=O)O)cc2)NC(=O)CSC[C@@H](C(=O)NCCOCCOCC(=O)NCCCCCCCCCCC(=O)O)NC(=O)[C@H](CCCNC(=N)N)NC(=O)[C@H](Cc2ccc(O)cc2)NC(=O)[C@H](CC2CCCCC2)NC(=O)[C@H](CCN)NC1=O` [Compound 2516] ({CH2CO}-Y(Carboxymethyl)Y(Carboxymethyl)DWY[Bip]Y[Orn][dL][Dab][Cha]YRC[AEEA][Aun]-OH; thioether N-14) as the compound, how does the IC50 read?
A: 0.126 µM

Q: `CC(C)C[C@H]1NC(=O)[C@H](CCCN)NC(=O)[C@H](Cc2ccc(O)cc2)NC(=O)[C@H](Cc2ccc(-c3ccccc3)cc2)NC(=O)[C@H](Cc2ccc(O)cc2)NC(=O)[C@H](Cc2c[nH]c3ccccc23)NC(=O)[C@H](CC(=O)O)NC(=O)[C@H](Cc2ccc(OCC(=O)O)cc2)NC(=O)[C@H](CN)NC(=O)CSC[C@@H](C(=O)NCCOCCOCC(=O)NCCCCCCCCCCC(=O)O)NC(=O)[C@H](CCCCN)NC(=O)[C@H](Cc2ccc(O)cc2)NC(=O)[C@H](CC2CCCCC2)NC(=O)[C@H](CCN)NC1=O` [Compound 2517] ({CH2CO}-[Dap]Y(Carboxymethyl)DWY[Bip]Y[Orn][dL][Dab][Cha]YKC[AEEA][Aun]-OH; thioether N-14) was tested. Which IC50 did it give?
A: 0.274 µM

Q: Which IC50 does the source give for `Cc1cccc(C[C@@H]2NC(=O)[C@H](CC(=O)O)NC(=O)[C@H](Cc3ccc(OCC(=O)O)cc3)NC(=O)[C@H](CN)NC(=O)CSC[C@@H](C(=O)NCCOCCOCC(=O)NCCCCCCCCCCC(=O)O)NC(=O)[C@H](CN)NC(=O)[C@H](Cc3ccc(O)cc3)NC(=O)[C@H](CC3CCCCC3)NC(=O)[C@H](CCN)NC(=O)[C@@H](CC(C)C)NC(=O)[C@H](CCCN)NC(=O)[C@H](Cc3ccc(O)cc3)NC(=O)[C@H](Cc3ccc(-c4ccccc4)cc3)NC(=O)[C@H](Cc3ccc(O)cc3)NC2=O)c1` [Compound 2518] ({CH2CO}-[Dap]Y(Carboxymethyl)D[Phe(3-Me)]Y[Bip]Y[Orn][dL][Dab][Cha]Y[Dap]C[AEEA][Aun]-OH; thioether N-14) here?
A: 0.207 µM

Q: `Cc1cccc(C[C@@H]2NC(=O)[C@H](CC(=O)O)NC(=O)[C@H](Cc3ccc(OCC(=O)O)cc3)NC(=O)[C@H](CN)NC(=O)CSC[C@@H](C(=O)NCCOCCOCC(=O)NCCCCCCCCCCC(=O)O)NC(=O)[C@H](CCCN)NC(=O)[C@H](Cc3ccc(O)cc3)NC(=O)[C@H](CC3CCCCC3)NC(=O)[C@H](CCN)NC(=O)[C@@H](CC(C)C)NC(=O)[C@H](CCCN)NC(=O)[C@H](Cc3ccc(O)cc3)NC(=O)[C@H](Cc3ccc(-c4ccccc4)cc3)NC(=O)[C@H](Cc3ccc(O)cc3)NC2=O)c1` [Compound 2519] ({CH2CO}-[Dap]Y(Carboxymethyl)D[Phe(3-Me)]Y[Bip]Y[Orn][dL][Dab][Cha]Y[Orn]C[AEEA][Aun]-OH; thioether N-14) was tested. Which IC50 did it give?
A: 0.152 µM

Q: Which IC50 does the source give for `Cc1cccc(C[C@@H]2NC(=O)[C@H](CC(=O)O)NC(=O)[C@H](Cc3ccc(OCC(=O)O)cc3)NC(=O)[C@H](CN)NC(=O)CSC[C@@H](C(=O)NCCOCCOCC(=O)NCCCCCCCCCCC(=O)O)NC(=O)[C@H](CCCNC(=N)N)NC(=O)[C@H](Cc3ccc(O)cc3)NC(=O)[C@H](CC3CCCCC3)NC(=O)[C@H](CCN)NC(=O)[C@@H](CC(C)C)NC(=O)[C@H](CCCN)NC(=O)[C@H](Cc3ccc(O)cc3)NC(=O)[C@H](Cc3ccc(-c4ccccc4)cc3)NC(=O)[C@H](Cc3ccc(O)cc3)NC2=O)c1` [Compound 2520] ({CH2CO}-[Dap]Y(Carboxymethyl)D[Phe(3-Me)]Y[Bip]Y[Orn][dL][Dab][Cha]YRC[AEEA][Aun]-OH; thioether N-14) here?
A: 0.233 µM

Q: Which IC50 does the source give for `CC(C)C[C@H]1NC(=O)[C@H](CCCN)NC(=O)[C@H](Cc2ccc(O)cc2)NC(=O)[C@H](Cc2ccc(-c3ccccc3)cc2)NC(=O)[C@H](Cc2ccc(O)cc2)NC(=O)[C@H](Cc2c[nH]c3ccccc23)NC(=O)[C@H](CC(=O)O)NC(=O)[C@H](Cc2ccc(OCC(=O)O)cc2)NC(=O)[C@H](Cc2ccc(OCC(=O)O)cc2)NC(=O)CSC[C@@H](C(=O)NCCOCCOCC(=O)NCCCCCCCCCCC(=O)O)NC(=O)[C@H](CCCN)NC(=O)[C@H](Cc2ccc(O)cc2)NC(=O)[C@H](CC2CCCCC2)NC(=O)[C@H](CCN)NC1=O` [Compound 2521] ({CH2CO}-Y(Carboxymethyl)Y(Carboxymethyl)DWY[Bip]Y[Orn][dL][Dab][Cha]Y[Orn]C[AEEA][Aun]-OH; thioether N-14) here?
A: 0.0891 µM

Q: Which IC50 does the source give for `CC(C)C[C@H]1NC(=O)[C@H](CCCN)NC(=O)[C@H](Cc2ccc(O)cc2)NC(=O)[C@H](Cc2ccc(-c3ccccc3)cc2)NC(=O)[C@H](Cc2ccc(O)cc2)NC(=O)[C@H](Cc2c[nH]c3ccccc23)NC(=O)[C@H](CC(=O)O)NC(=O)[C@H](Cc2ccc(OCC(=O)O)cc2)NC(=O)[C@H](Cc2ccc(OCC(=O)O)cc2)NC(=O)CSC[C@@H](C(=O)NCCOCCOCC(=O)NCCCCCCCCCCC(=O)O)NC(=O)[C@H](CN)NC(=O)[C@H](Cc2ccc(O)cc2)NC(=O)[C@H](CC2CCCCC2)NC(=O)[C@H](CCN)NC1=O` [Compound 2522] ({CH2CO}-Y(Carboxymethyl)Y(Carboxymethyl)DWY[Bip]Y[Orn][dL][Dab][Cha]Y[Dap]C[AEEA][Aun]-OH; thioether N-14) here?
A: 0.34 µM

Q: How did the IC50 turn out when `CC(C)C[C@H]1NC(=O)[C@H](CCCN)NC(=O)[C@H](C(C)C)NC(=O)[C@H](Cc2ccc(-c3ccccc3)cc2)NC(=O)[C@H](C(C)C)NC(=O)[C@H](Cc2c[nH]c3ccccc23)NC(=O)[C@H](CC(=O)O)NC(=O)[C@H](Cc2ccc(C(=O)O)cc2)NC(=O)[C@H](Cc2ccc(OCC(=O)O)cc2)NC(=O)CSC[C@@H](C(=O)N[C@@H](CCCCN)C(=O)NCCOCCOCC(=O)NCCCCCCCCCCC(=O)O)NC(=O)[C@H](CCCCN)NC(=O)[C@H](C(C)C)NC(=O)[C@H](CC2CCCCC2)NC(=O)[C@H](CCN)NC1=O` [Compound 2523] ({CH2CO}-Y(Carboxymethyl)[Phe(4-COOH)]DWV[Bip]V[Orn][dL][Dab][Cha]VKCK[AEEA][Aun]-OH; thioether N-14) was run?
A: 0.0076 µM

Q: For `CC(C)C[C@H]1NC(=O)[C@H](CCCN)NC(=O)[C@H](C(C)C)NC(=O)[C@H](Cc2ccc(-c3ccccc3)cc2)NC(=O)[C@H](C(C)C)NC(=O)[C@H](Cc2c[nH]c3ccccc23)NC(=O)[C@H](CC(=O)O)NC(=O)[C@H](Cc2ccc(OCC(=O)O)cc2)NC(=O)[C@H](CN)NC(=O)CSC[C@@H](C(=O)N[C@@H](CCCCN)C(=O)NCCOCCOCC(=O)NCCCCCCCCCCC(=O)O)NC(=O)[C@H](CCCCN)NC(=O)[C@H](C(C)C)NC(=O)[C@H](CC2CCCCC2)NC(=O)[C@H](CCN)NC1=O` [Compound 2525] ({CH2CO}-[Dap]Y(Carboxymethyl)DWV[Bip]V[Orn][dL][Dab][Cha]VKCK[AEEA][Aun]-OH; thioether N-14), which IC50 is on record?
A: 0.0165 µM

Q: Which IC50 does the source give for `Cc1cccc(C[C@@H]2NC(=O)[C@H](CC(=O)O)NC(=O)[C@H](Cc3ccc(OCC(=O)O)cc3)NC(=O)[C@H](CN)NC(=O)CSC[C@@H](C(=O)N[C@@H](CCCCN)C(=O)NCCOCCOCC(=O)NCCCCCCCCCCC(=O)O)NC(=O)[C@H](CN)NC(=O)[C@H](C(C)C)NC(=O)[C@H](CC3CCCCC3)NC(=O)[C@H](CCN)NC(=O)[C@@H](CC(C)C)NC(=O)[C@H](CCCN)NC(=O)[C@H](C(C)C)NC(=O)[C@H](Cc3ccc(-c4ccccc4)cc3)NC(=O)[C@H](C(C)C)NC2=O)c1` [Compound 2526] ({CH2CO}-[Dap]Y(Carboxymethyl)D[Phe(3-Me)]V[Bip]V[Orn][dL][Dab][Cha]V[Dap]CK[AEEA][Aun]-OH; thioether N-14) here?
A: 0.0072 µM

Q: With `Cc1cccc(C[C@@H]2NC(=O)[C@H](CC(=O)O)NC(=O)[C@H](Cc3ccc(OCC(=O)O)cc3)NC(=O)[C@H](CN)NC(=O)CSC[C@@H](C(=O)N[C@@H](CCCCN)C(=O)NCCOCCOCC(=O)NCCCCCCCCCCC(=O)O)NC(=O)[C@H](CCCN)NC(=O)[C@H](C(C)C)NC(=O)[C@H](CC3CCCCC3)NC(=O)[C@H](CCN)NC(=O)[C@@H](CC(C)C)NC(=O)[C@H](CCCN)NC(=O)[C@H](C(C)C)NC(=O)[C@H](Cc3ccc(-c4ccccc4)cc3)NC(=O)[C@H](C(C)C)NC2=O)c1` [Compound 2527] ({CH2CO}-[Dap]Y(Carboxymethyl)D[Phe(3-Me)]V[Bip]V[Orn][dL][Dab][Cha]V[Orn]CK[AEEA][Aun]-OH; thioether N-14) as the compound, how does the IC50 read?
A: 0.0068 µM

Q: For `Cc1cccc(C[C@@H]2NC(=O)[C@H](CC(=O)O)NC(=O)[C@H](Cc3ccc(OCC(=O)O)cc3)NC(=O)[C@H](CN)NC(=O)CSC[C@@H](C(=O)N[C@@H](CCCCN)C(=O)NCCOCCOCC(=O)NCCCCCCCCCCC(=O)O)NC(=O)[C@H](CCCNC(=N)N)NC(=O)[C@H](C(C)C)NC(=O)[C@H](CC3CCCCC3)NC(=O)[C@H](CCN)NC(=O)[C@@H](CC(C)C)NC(=O)[C@H](CCCN)NC(=O)[C@H](C(C)C)NC(=O)[C@H](Cc3ccc(-c4ccccc4)cc3)NC(=O)[C@H](C(C)C)NC2=O)c1` [Compound 2528] ({CH2CO}-[Dap]Y(Carboxymethyl)D[Phe(3-Me)]V[Bip]V[Orn][dL][Dab][Cha]VRCK[AEEA][Aun]-OH; thioether N-14), which IC50 is on record?
A: 0.0078 µM
